Assay results reported in BindingDB's records for doi:10.1038/sj.bjp.0703341 (Friedrich-Schiller-University Jena, 2000).
Where “and” joins values, the source holds several entries; their conditions need not be identical. Identical values can stand only once.

Experiments:
[1] = target: 5-hydroxytryptamine receptor 6 (Rattus norvegicus, UniProt P31388)
[2] = target: T1, 5-hydroxytryptamine receptor 2C (Sus scrofa, UniProt G7ZKZ7)
T1 sequence (G7ZKZ7 whole entry): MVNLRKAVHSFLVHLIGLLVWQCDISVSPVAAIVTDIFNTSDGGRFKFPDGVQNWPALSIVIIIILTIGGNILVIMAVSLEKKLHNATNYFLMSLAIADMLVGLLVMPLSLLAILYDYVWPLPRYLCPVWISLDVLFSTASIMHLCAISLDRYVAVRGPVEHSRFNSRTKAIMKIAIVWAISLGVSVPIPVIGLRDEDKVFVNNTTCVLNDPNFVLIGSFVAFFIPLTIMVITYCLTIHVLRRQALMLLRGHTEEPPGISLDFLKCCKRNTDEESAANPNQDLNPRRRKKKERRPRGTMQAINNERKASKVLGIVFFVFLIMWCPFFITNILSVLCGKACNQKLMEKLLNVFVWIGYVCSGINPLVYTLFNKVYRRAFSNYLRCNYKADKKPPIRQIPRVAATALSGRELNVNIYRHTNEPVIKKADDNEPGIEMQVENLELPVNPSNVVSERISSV

[3] = target: 5-hydroxytryptamine receptor 7 (Rattus norvegicus, UniProt P32305)
[4] = target: 5-hydroxytryptamine receptor 2B (Rattus norvegicus, UniProt P30994)
5-hydroxytryptamine receptor 2B, sequence (P30994 whole entry): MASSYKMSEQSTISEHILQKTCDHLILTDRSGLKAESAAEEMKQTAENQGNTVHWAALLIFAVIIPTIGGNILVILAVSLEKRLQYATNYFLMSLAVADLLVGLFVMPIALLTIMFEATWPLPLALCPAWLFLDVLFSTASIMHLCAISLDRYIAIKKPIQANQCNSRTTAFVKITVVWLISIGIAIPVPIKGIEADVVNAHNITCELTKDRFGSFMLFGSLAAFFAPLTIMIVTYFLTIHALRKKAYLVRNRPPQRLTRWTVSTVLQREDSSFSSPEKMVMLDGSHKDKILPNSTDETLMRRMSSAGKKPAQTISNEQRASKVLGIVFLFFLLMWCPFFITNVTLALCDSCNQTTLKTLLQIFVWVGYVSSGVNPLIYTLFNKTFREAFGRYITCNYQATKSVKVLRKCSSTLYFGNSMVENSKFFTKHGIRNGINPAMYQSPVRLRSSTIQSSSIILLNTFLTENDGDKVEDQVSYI

5-hydroxytryptamine receptor 7, sequence (P32305 whole entry): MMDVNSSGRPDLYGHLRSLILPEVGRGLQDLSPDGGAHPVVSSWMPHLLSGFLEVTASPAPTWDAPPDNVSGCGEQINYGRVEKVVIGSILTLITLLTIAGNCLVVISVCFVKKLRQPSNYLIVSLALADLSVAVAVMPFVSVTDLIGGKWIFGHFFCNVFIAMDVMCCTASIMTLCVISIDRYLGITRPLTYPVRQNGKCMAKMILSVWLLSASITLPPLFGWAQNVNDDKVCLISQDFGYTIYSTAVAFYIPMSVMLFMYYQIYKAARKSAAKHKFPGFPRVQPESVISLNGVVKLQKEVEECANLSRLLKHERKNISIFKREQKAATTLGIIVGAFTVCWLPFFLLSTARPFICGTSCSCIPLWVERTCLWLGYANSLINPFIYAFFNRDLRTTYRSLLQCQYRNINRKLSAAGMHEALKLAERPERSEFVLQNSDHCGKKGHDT
5-hydroxytryptamine receptor 6, sequence (P31388 whole entry): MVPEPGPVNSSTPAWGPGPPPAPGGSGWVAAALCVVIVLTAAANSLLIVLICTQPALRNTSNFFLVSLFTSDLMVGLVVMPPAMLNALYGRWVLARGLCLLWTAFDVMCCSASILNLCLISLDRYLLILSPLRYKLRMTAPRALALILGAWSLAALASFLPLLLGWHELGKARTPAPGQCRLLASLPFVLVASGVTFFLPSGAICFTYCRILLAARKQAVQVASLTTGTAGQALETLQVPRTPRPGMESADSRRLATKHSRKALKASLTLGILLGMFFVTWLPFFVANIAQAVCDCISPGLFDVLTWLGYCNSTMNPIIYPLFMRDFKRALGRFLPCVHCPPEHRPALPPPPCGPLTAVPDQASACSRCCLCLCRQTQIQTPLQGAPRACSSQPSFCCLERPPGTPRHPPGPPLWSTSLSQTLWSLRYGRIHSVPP

| Compound | Ki [1] [nM] | Ki [2] | Ki [3] [nM] | Ki [4] [nM] |
| --- | --- | --- | --- | --- |
| Clc1ccc2c(c1)C(N1CCNCC1)=Nc1ccccc1O2 | 6.31 |  |  |  |
| Cc1nc2sccn2c(=O)c1CCN1CCC(=C(c2ccc(F)cc2)c2ccc(F)cc2)CC1 | 39.8 | 2.51 nM |  |  |
| CN(C)CCC=C1c2ccccc2CCc2ccccc21 | 63.1 |  | 126 |  |
| CC[C@@H](CO)NC(=O)[C@@H]1C=C2c3cccc4c3c(cn4C)C[C@H]2N(C)C1 | 398 | 2.51 nM |  |  |
| CN(C)CC/C=C1\c2ccccc2Sc2ccc(Cl)cc21 | 3.16 |  | 5.01 |  |
| O=C(c1ccc(F)cc1)C1CCN(CCn2c(=O)[nH]c3ccccc3c2=O)CC1 [3-(2-{4-[(4-fluorophenyl)carbonyl]piperidin-1-yl}ethyl)-1,2,3,4-tetrahydroquinazoline-2,4-dione] | > 10000 | 100 nM |  | 3160 |
| OCCN1CCN(CCCN2c3ccccc3Sc3ccc(Cl)cc32)CC1 [4-[3-(2-chlorophenothiazin-10-yl)propyl]-1-piperazineethanol] | 15.9 |  | 25.1 |  |
| O=C(CCCN1CCC2(CC1)C(=O)NCN2c1ccccc1)c1ccc(F)cc1 [8-[4-(4-fluorophenyl)-4-oxidanylidene-butyl]-1-phenyl-1,3,8-triazaspiro[4.5]decan-4-one] |  | 1260 nM |  |  |
| CN1CCN(C2=Nc3ccccc3Oc3ccc(Cl)cc32)CC1 [13-chloro-10-(4-methylpiperazin-1-yl)-2-oxa-9-azatricyclo[9.4.0.0^{3,8}]pentadeca-1(11),3,5,7,9,12,14-heptaene] | 15.9 |  | 39.8 |  |
| CC(O)C(C)OC(=O)C1CC2c3cccc4c3c(cn4C(C)C)CC2N(C)C1 (stereo not drawn) [CAS_60634-51-7] |  | 7.94 nM |  | 6.31 |
| CN1C[C@@H](NS(=O)(=O)N(C)C)C[C@@H]2c3cccc4c3c(cn4C)C[C@H]21 [MESULERGINE] | 1580 | 1.58 nM | 6.31 |  |
| CN1C[C@H](CNC(=O)OCc2ccccc2)C[C@@H]2c3cccc4c3c(cn4C)C[C@H]21 [METERGOLINE] | 31.6 | 0.63 nM |  |  |
| CN1CCC(=C2c3ccccc3CCc3sccc32)CC1 [NSC_27400] |  | 7.94 nM |  |  |
| CSc1ccc2c(c1)C(N1CCN(C)CC1)Cc1ccccc1S2 (stereo not drawn) [methanesulfonic acid;1-methyl-4-(3-methylsulfanyl-5,6-dihydrobenzo[b][1]benzothiepin-5-yl)piperazine] |  | 25.1 nM |  |  |
| COC(=O)[C@@H]1[C@H]2C[C@H]3c4[nH]c5ccccc5c4CCN3C[C@@H]2CC[C@@H]1O [yohimbic acid methyl ester] |  | 1580 nM and > 10000 nM |  | 39.8 |
